Source: the NIST ThermoML archive (doi:10.1021/je900669t)
Numbers after ± are expanded uncertainties.

What was measured:
[1] = Liquid; for mass density: 298.15 K, 101.33 kPa; for Normal boiling temperature: Ebulliometric method (Recirculating still)
[2] = refractive index (Na D-line) (dimensionless); details: 293.15 K; 101.33 kPa; Liquid; Standard Abbe refractometry

| mass density [1] [kg/m3] | Normal boiling temperature [1] [°C] | refractive index [2] | Structure (SMILES) |
| --- | --- | --- | --- |
| 1046.9 ± 1.6 | 118.29 ± 0.2 | 1.3715 ± 0.0005 | CC(=O)O [acetic acid] |
| 971.7 ± 1.4 | 140.5 ± 0.2 | 1.4489 ± 0.0005 | CC(=O)CC(C)=O [2,4-pentanedione] |
| 779.6 ± 7.6 | 80.8 ± 0.2 | 1.4259 ± 0.0005 | C1CCCCC1 [cyclohexane] |
